Results published in patent US20110190398A1, “USE OF IMMUNOS[…] IN A NEW INDICATION” (NOVARTIS AG, priority 2008, published 2011).
Structures can show the parent of a compound that is named as a salt.

Columns and labels:
Assay type in all cases: in vivo, Lewis rats
[1] = test system: Experimental Autoimmune Neuritis; assay: EAN clinical score, suppressive treatment; settings: EAN rats, 1 mg/kg intragastrically once daily from immunization until Day 22; scale 0-10; control maximal 4.80±0.51 at Day 13
Protocol: (§1) Male Lewis rats (8-10 weeks, 180-200 g, Elevage-Janvier, France) were housed under a 12 h light-12 h dark cycle and with free access to food and water. All animal procedures were in accordance with a protocol approved by the local Administration District Official Committee. All efforts were made to minimize the number of animals and their suffering.
(§2) For EAN induction, rats were immunized by subcutaneous injection into both hind footpads with 100 μL of an inoculum containing 100 μg of synthetic neuritogenic P2 57-81 peptide (GeneScript Corporation, Scotch Plains, N.J., USA). The peptide was dissolved in phosphate buffered saline (PBS) (2 mg/mL) and then emulsified with an equal volume of complete Freund's adjuvant (CFA) containing 2 mg/mL mycobacterium tuberculosis to get a final concentration of 1 mg/mL.
EAN clinical scores were evaluated every day as follows: 0=normal, 1=reduced tonus of tail, 2=limp tail, impaired righting, 3=absent righting, 4=gait ataxia, 5=mild paresis of the hind limbs, 6=moderate paraparesis, 7=severe paraparesis or paraplegia of the hind limbs, 8=tetraparesis, 9=moribund, and 10=death (Zhang et al., 2009A).
Compound A was tested at a concentration of 1 mg/kg (suspended in a water vehicle). The compound A suspension was intragastrically administrated immediately after induction and then once daily until Day 22 (5 rats per group). […]

[2] = test system: Experimental Autoimmune Neuritis; assay: Body weight course in EAN rats; settings: 1 mg/kg once daily, control showed significant weight loss Day 10 to 18
Protocol: as §1, §2
Compound A was tested at a concentration of 1 mg/kg (suspended in a water vehicle). The compound A suspension was intragastrically administrated immediately after induction and then once daily until Day 22 (5 rats per group). For control EAN rats, the same volume of 1% CMC in water was given.

[3] = test system: Experimental Autoimmune Neuritis; assay: Immunohistochemistry of inflammatory cell infiltration in EAN sciatic nerves; settings: EAN rats, Day 16, 1 mg/kg, sciatic nerve cross-sections, n=5
[4] = test system: Experimental Autoimmune Neuritis; assay: Luxol Fast Blue staining, semiquantitative histological score of EAN sciatic nerves; settings: EAN rats, Day 16, 1 mg/kg in water vehicle, LFB staining of sciatic nerves, scale 0-3
Protocol: as §1
For EAN induction, rats were immunized by subcutaneous injection into both hind footpads with 100 μL of an inoculum containing 100 μg of synthetic neuritogenic P2 57-81 peptide (GeneScript Corporation, Scotch Plains, N.J., USA). […]
The routine Luxol Fast Blue (LFB) staining was applied to show myelin. […] Briefly, four cross-sections from root and middle level of both sides of EAN rats were analyzed. All perivascular areas present in cross-sections were evaluated by two observers unaware of the treatment, and the degree of pathological alteration was graded semiquantitatively on the following scale: 0=normal perivascular area; 1=mild cellular infiltrate adjacent to the vessel; 2=cellular infiltration plus demyelination in immediate proximity to the vessel; and 3=cellular infiltration and demyelination throughout the section. […]

## CCC(N)(CO)CCc1ccc(Sc2cccc(OCc3ccccc3)c2)cc1Cl (stereo not drawn) [Compound A, 2-amino-4-[4-(3-benzyloxyphenylthio)-2-chlorophenyl]-2-ethylbutane-1-ol hydrochloride]
[1]
  mean neurological score: < 0.1
[2]
  weight loss: a reduced level of weight loss was observed from Day 13 to 15
[3]
  Area of immunoreactivity/area of sciatic nerves (%) for B cells (OX22+): <0.01%
  Area of immunoreactivity/area of sciatic nerves (%) for Macrophages (ED1+): <0.05%
  Area of immunoreactivity/area of sciatic nerves (%) for T cells (W3/13+): <0.01%
[4]
  Mean Histological Score: 0.10
